Measured values from publication PMC9221371, “Flavonoid Derivatives as Potential Cholinesterase Inhibitors in Scopolamine-Induced Amnesic Mice: An In Vitro, In Vivo and Integrated Computational Approach” (Brain Sciences, 2022).
Like-named read-outs stand apart in the source and are kept apart here.

Legend:
[1] = test system: scopolamine-induced amnesic mice; assay: Y-Maze Paradigm, spontaneous alternation in scopolamine-induced amnesic model; assay type: in vivo, Balb/C mice; conditions: for Spontaneous Alternation Performance: scopolamine 1 mg/kg i.p., n = 8
Source text: (§1) For assessment of acute toxicity of the flavones (F1–F5), animals (21 in number) were divided into groups of 3 animals each. The reported protocols by Lorke were followed with slight modification to perform tests in two phases. In the first phase, one (control) group of animals were given Tween-80 (2%), and oral doses of F1–F5 were given to the remaining groups, respectively, at various doses (mg/kg body weight). […] The animals were housed in plastic cages. After two weeks, the animals were sacrificed by euthanasia with isoflurane in a humane manner for assessment of the effects on total weight and weight of the vital organs. The biochemical parameters of blood and histological studies of vital organs (kidney and liver tissue) were also assessed. […] The preliminary pharmacological activity was assessed at various dose concentrations of F1–F5 (2.5–20 mg/kg b.w.) to determine the effective dose for assessment of cognitive function using animal models.
(§2) The animals in the control (normal) and scopolamine amnesic groups were administered vehicle (Tween-80, 2%) only. Treated animals received F1–F5 suspended in Tween-80 (2%) p.o. at their respective doses for a period of 4 weeks. […] For assessing behavioral effects using the Y-Maze Paradigm and novel object discrimination (NOD) task, scopolamine (1 mg/kg, i.p.) was given to the different groups, 30 min after the respective treatments, to induce memory impairment (amnesia) in mice. All of the tests were performed between 8:00 a.m. and 6:00 p.m. to avoid sham results in the performance of the animals.
(§3) Behavioral tasks on the Y-Maze Paradigm and “NOD” tasks were conducted in the 5th week of study to determine learning and memory functions. The apparatus arena was cleaned with 70% ethanol during the inter-trial interval to prevent a confounding error due to the influence of odor [20, 21].
The Y-Maze task is a non-invasive and reliable behavioral test that was used for memory assessment of spontaneous alternation for F1–F5 based on previously reported protocols. A single session of Y-Maze was used to record the spontaneous alternation behavior of the animals to determine exploratory behavior and instant memory functioning. The apparatus was made of three arms in a “Y” shape (35 cm × 8 cm × 15 cm) with an equilateral triangular central area. In brief, each of the mice, previously naive to the maze, was placed at the terminal end of one arm. The animals were allowed to move and explore freely for 8 min through the maze. The number of arm entries was noted. One arm entry was considered when the hind paws of the animal were completely placed inside the arm, and the series of arm entries were documented. The spontaneous alternation in percent was calculated.

[2] = molecular target: T1, brain acetylcholinesterase (Mus musculus, UniProt P21836); assay type: in vivo; design: unit not given here; conditions: brain homogenate, n = 8
T1 construct: The brain was extracted, and a homogenate (10% w/v) in 0.1 M of phosphate buffer (pH 7.4) was prepared; from tissue; host or cells: mouse brain homogenate
Description: as §2
(§4) The brain was extracted, and a homogenate (10% w/v) in 0.1 M of phosphate buffer (pH 7.4) was prepared by centrifugation for the assessment of brain oxidative status and estimating brain acetylcholinesterase activity. Catalase (CAT), superoxide dismutase (SOD), glutathione (GSH) and level of lipid peroxidation (malondialdehyde, MDA) were quantified as oxidative stress markers.

[3] = test system: brains of scopolamine-induced amnesic mice; assay: Antioxidant enzyme activities and oxidative stress markers in brain homogenate; assay type: in vivo, Balb/C mice; conditions: for GSH / MDA: n = 8
Description: as §2, §4

[4] = test system: scopolamine-induced amnesic mice; assay: Novel object discrimination (NOD) task in scopolamine-induced amnesic model; assay type: in vivo, Balb/C mice; conditions: scopolamine 1 mg/kg i.p., n = 8
Description: as §2, §3
Animals were challenged for the novel object discrimination task for F1–F5 as per previously reported protocols. After habituation and acclimatization, animals in each group had two consecutive object exploration trials (5 min each) for this test, with a break of 4 h in between two trials. In the familiarization phase (sample), the animals were challenged to explore two objects similar to each other. In the second phase (test), any of the two objects was changed by a new object. Exploration time in sec for the objects, including chewing, licking, sniffing or pointing the vibrissae of nose towards the object, was recorded. The discrimination ratio (%DI) was then determined using:(T novel object − T familiar object)/(T novel object + T familiar object) × 100(1)

[5] = molecular target: T2, BuChE (equine serum lyophilized) (Equus caballus, UniProt P81908); assay: biochemical; conditions: triplicate; read-out: BChE IC50 (converted)
T2 construct: purchased Sigma-Aldrich (Taufkirchen, Germany); host or cells: equine serum
Description: (§5) Synthetic flavonoids F1–F5 previously synthesized by our group were used in the study.
(§6) For the determination of acetylcholinesterase inhibitory potentials, AChE and BuChE were used. […] To the tube were added DTNB (100 µL) and buffer (2.4 mL). The tube was incubated at 25 °C for 5 min as pre-incubation. The reaction was started by adding ATChI (40 µL), and the mixture was incubated at 25 °C for 20 min. The absorbance at 412 nm was measured spectrophotometrically in triplicate. […] The data were recorded in triplicate, and IC50 was calculated.

[6] = molecular target: T3, AChE (electric eel type-VI-S) (Electrophorus electricus, UniProt O42275); assay: biochemical; conditions: 25 °C, triplicate
T3 construct: purchased Sigma-Aldrich (Taufkirchen, Germany)
Description: as §5, §6

Balb/C mice = assay: Acute toxicity study; assay type: in vivo; conditions: n = 3; for ALP / AST / Creatinine / Glucose / Total Cholesterol / Triglyceride: blood; for Kidney Weight / Liver Weight / Total Weight: mice
Source text: Two weeks before the experiment, the animals were acclimatized to laboratory conditions.
as §1

[7] = 7.5 mg/kg b.w., n = 8, 7.5 mg/kg

T1 sequence (P21836 32-614): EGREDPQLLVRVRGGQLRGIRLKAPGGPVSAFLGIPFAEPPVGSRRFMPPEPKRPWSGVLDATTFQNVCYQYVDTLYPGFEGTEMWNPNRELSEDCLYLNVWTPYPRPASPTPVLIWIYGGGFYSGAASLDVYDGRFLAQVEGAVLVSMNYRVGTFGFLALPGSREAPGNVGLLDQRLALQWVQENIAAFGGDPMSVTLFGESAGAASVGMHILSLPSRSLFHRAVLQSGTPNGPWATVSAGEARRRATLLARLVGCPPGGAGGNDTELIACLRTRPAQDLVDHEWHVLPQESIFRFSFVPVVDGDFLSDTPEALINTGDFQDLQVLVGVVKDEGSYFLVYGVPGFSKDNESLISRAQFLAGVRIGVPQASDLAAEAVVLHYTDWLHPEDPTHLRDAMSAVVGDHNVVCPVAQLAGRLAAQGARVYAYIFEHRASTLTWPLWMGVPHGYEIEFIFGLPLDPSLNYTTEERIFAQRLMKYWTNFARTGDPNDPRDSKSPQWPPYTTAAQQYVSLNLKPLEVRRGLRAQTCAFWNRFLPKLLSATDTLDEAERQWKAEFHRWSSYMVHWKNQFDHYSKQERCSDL
T3 sequence (O42275 24-633): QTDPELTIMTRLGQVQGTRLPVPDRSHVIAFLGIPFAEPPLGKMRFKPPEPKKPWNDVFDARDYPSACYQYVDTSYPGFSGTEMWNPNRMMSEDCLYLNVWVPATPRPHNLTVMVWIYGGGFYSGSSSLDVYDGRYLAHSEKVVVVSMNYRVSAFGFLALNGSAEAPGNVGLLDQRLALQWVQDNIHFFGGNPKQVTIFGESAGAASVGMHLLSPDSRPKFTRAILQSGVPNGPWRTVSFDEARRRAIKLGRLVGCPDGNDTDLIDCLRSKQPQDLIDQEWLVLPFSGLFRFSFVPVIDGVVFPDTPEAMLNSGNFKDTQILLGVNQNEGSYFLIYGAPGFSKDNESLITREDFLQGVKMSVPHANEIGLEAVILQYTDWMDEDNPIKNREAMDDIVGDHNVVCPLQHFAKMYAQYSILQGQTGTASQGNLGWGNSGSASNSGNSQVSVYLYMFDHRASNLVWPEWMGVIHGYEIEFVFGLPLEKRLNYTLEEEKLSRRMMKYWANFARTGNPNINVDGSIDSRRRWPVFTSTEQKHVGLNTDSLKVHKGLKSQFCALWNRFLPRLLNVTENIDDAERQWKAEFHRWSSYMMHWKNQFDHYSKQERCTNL
T2 sequence (P81908 whole entry): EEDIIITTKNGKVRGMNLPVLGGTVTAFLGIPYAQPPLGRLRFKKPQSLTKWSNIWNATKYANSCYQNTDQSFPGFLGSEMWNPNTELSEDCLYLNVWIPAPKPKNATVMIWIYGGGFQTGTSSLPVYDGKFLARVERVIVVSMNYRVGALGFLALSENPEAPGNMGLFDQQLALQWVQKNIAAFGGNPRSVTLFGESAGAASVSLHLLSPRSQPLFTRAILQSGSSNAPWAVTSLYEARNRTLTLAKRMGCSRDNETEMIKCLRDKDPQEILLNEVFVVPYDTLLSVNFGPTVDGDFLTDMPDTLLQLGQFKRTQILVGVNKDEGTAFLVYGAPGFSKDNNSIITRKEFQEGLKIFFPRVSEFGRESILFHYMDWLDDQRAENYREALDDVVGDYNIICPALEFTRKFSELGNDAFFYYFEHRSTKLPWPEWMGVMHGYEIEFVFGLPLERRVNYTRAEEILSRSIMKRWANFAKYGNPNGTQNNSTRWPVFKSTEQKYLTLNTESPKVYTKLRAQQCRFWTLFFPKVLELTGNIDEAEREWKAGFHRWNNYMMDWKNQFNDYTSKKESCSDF

O=c1cc(-c2cc(Cl)ccc2Cl)oc2ccccc12 [Compound F5]
Spontaneous Alternation Performance ([1]; 7.5 mg/kg b.w. p.o. 4 weeks): 67.94 ± 1.51%
Spontaneous Alternation Performance ([1]; 15 mg/kg b.w. p.o. 4 weeks): 73.11 ± 1.63%
Spontaneous alternation performance (preliminary, selection of doses) ([1]; Table S1, dose 2.5 mg/kg b.w.): 38.63±1.78
Spontaneous alternation performance (preliminary, selection of doses) ([1]; Table S1, dose 5 mg/kg b.w.): 43.87±1.94
Spontaneous alternation performance (preliminary, selection of doses) ([1]; Table S1, dose 7.5 mg/kg b.w.): 66.53±1.89
Spontaneous alternation performance (preliminary, selection of doses) ([1]; Table S1, dose 10 mg/kg b.w.): 66.97±1.72
Spontaneous alternation performance (preliminary, selection of doses) ([1]; Table S1, dose 12.5 mg/kg b.w.): 67.33±2.05
level of AChE ([2]; 7.5 mg/kg b.w.): 15.34 ± 0.69
level of AChE ([2]; 15 mg/kg b.w.): 14.67 ± 0.67
GSH ([3]; 7.5 mg/kg b.w.): 37.28 ± 1.60 μg/mg of Protein
MDA ([3]; 7.5 mg/kg b.w.): 14.98 ± 1.22 nmol/mg Protein
CAT [3, 7]: 24.18 ± 1.41 U/mg of Protein
SOD [3, 7]: 9.88 ± 1.49 U/mg of Protein
GSH ([3]; 15 mg/kg b.w.): 39.01 ± 1.39 μg/mg of Protein
MDA ([3]; 15 mg/kg b.w.): 14.48 ± 1.38 nmol/mg Protein
CAT ([3]; 15 mg/kg b.w., n = 8, 15 mg/kg): 24.91 ± 1.29 U/mg of Protein
SOD ([3]; 15 mg/kg b.w., n = 8, 15 mg/kg): 10.20 ± 1.62 U/mg of Protein
discrimination index (%DI) ([4]; 7.5 mg/kg b.w. p.o. 4 weeks): 59.76 ± 1.24%
discrimination index (%DI) ([4]; 15 mg/kg b.w. p.o. 4 weeks): 62.12 ± 1.28%
IC50 [5]: 376 µM
IC50 [6]: 338 µM
ALP (Balb/C mice; 600 mg/kg b.w. oral): 134.41 ± 2.81 U/L
AST (Balb/C mice; 600 mg/kg b.w. oral): 108.37 ± 1.97 U/L
Creatinine (Balb/C mice; 600 mg/kg b.w. oral): 0.28 ± 0.04 mg/dL
Glucose (Balb/C mice; 600 mg/kg b.w. oral): 86.98 ± 2.12 mg/dL
Total Cholesterol (Balb/C mice; 600 mg/kg b.w. oral): 102.91 ± 1.93 mg/dL
Triglyceride (Balb/C mice; 600 mg/kg b.w. oral): 95.31 ± 2.61 mg/dL
Kidney Weight (Balb/C mice; 600 mg/kg b.w. oral): 0.30 ± 0.21 g
Liver Weight (Balb/C mice; 600 mg/kg b.w. oral): 1.24 ± 0.25 g
Total Weight (Balb/C mice; 600 mg/kg b.w. oral): 20.97 ± 1.66 g
ALP (Balb/C mice; 1000 mg/kg b.w. oral): 135.87 ± 2.24 U/L
AST (Balb/C mice; 1000 mg/kg b.w. oral): 107.41 ± 2.03 U/L
Creatinine (Balb/C mice; 1000 mg/kg b.w. oral): 0.35 ± 0.05 mg/dL
Glucose (Balb/C mice; 1000 mg/kg b.w. oral): 87.01 ± 2.21 mg/dL
Total Cholesterol (Balb/C mice; 1000 mg/kg b.w. oral): 103.02 ± 1.79 mg/dL
Triglyceride (Balb/C mice; 1000 mg/kg b.w. oral): 96.08 ± 2.01 mg/dL
Kidney Weight (Balb/C mice; 1000 mg/kg b.w. oral): 0.31 ± 0.24 g
Liver Weight (Balb/C mice; 1000 mg/kg b.w. oral): 1.22 ± 0.29 g
Total Weight (Balb/C mice; 1000 mg/kg b.w. oral): 21.88 ± 1.89 g
ALP (Balb/C mice; 2000 mg/kg b.w. oral): 133.91 ± 3.71 U/L
AST (Balb/C mice; 2000 mg/kg b.w. oral): 108.39 ± 1.89 U/L
Creatinine (Balb/C mice; 2000 mg/kg b.w. oral): 0.33 ± 0.06 mg/dL
Glucose (Balb/C mice; 2000 mg/kg b.w. oral): 86.89 ± 1.98 mg/dL
Total Cholesterol (Balb/C mice; 2000 mg/kg b.w. oral): 102.73 ± 2.10 mg/dL
Triglyceride (Balb/C mice; 2000 mg/kg b.w. oral): 95.37 ± 1.98 mg/dL
Kidney Weight (Balb/C mice; 2000 mg/kg b.w. oral): 0.29 ± 0.20 g
Liver Weight (Balb/C mice; 2000 mg/kg b.w. oral): 1.26 ± 0.21 g
Total Weight (Balb/C mice; 2000 mg/kg b.w. oral): 22.91 ± 1.67 g
ALP (Balb/C mice; 3000 mg/kg b.w. oral): 134.02 ± 3.28 U/L
AST (Balb/C mice; 3000 mg/kg b.w. oral): 107.76 ± 1.92 U/L
Creatinine (Balb/C mice; 3000 mg/kg b.w. oral): 0.30 ± 0.04 mg/dL
Glucose (Balb/C mice; 3000 mg/kg b.w. oral): 85.34 ± 2.01 mg/dL
Total Cholesterol (Balb/C mice; 3000 mg/kg b.w. oral): 103.09 ± 1.83 mg/dL
Triglyceride (Balb/C mice; 3000 mg/kg b.w. oral): 96.50 ± 2.05 mg/dL
Kidney Weight (Balb/C mice; 3000 mg/kg b.w. oral): 0.30 ± 0.19 g
Liver Weight (Balb/C mice; 3000 mg/kg b.w. oral): 1.23 ± 0.25 g
Total Weight (Balb/C mice; 3000 mg/kg b.w. oral): 22.65 ± 1.91 g
